Experimental data reported in article PMC9101838, “Novel CFTR Activator Cact-3 Ameliorates Ocular Surface Dysfunctions in Scopolamine-Induced Dry Eye Mice” (International Journal of Molecular Sciences, 2022).

Biological target: T1, Cystic fibrosis transmembrane conductance regulator (CFTR) (Homo sapiens, UniProt P13569)
T1 construct: human WT-CFTR
Assay: apical membrane current in FRT cells expressing human WT-CFTR; whole-cell patch clamp in CHO-K1 cells; no change in cAMP
Format: cell-based

T1 sequence (P13569 whole entry): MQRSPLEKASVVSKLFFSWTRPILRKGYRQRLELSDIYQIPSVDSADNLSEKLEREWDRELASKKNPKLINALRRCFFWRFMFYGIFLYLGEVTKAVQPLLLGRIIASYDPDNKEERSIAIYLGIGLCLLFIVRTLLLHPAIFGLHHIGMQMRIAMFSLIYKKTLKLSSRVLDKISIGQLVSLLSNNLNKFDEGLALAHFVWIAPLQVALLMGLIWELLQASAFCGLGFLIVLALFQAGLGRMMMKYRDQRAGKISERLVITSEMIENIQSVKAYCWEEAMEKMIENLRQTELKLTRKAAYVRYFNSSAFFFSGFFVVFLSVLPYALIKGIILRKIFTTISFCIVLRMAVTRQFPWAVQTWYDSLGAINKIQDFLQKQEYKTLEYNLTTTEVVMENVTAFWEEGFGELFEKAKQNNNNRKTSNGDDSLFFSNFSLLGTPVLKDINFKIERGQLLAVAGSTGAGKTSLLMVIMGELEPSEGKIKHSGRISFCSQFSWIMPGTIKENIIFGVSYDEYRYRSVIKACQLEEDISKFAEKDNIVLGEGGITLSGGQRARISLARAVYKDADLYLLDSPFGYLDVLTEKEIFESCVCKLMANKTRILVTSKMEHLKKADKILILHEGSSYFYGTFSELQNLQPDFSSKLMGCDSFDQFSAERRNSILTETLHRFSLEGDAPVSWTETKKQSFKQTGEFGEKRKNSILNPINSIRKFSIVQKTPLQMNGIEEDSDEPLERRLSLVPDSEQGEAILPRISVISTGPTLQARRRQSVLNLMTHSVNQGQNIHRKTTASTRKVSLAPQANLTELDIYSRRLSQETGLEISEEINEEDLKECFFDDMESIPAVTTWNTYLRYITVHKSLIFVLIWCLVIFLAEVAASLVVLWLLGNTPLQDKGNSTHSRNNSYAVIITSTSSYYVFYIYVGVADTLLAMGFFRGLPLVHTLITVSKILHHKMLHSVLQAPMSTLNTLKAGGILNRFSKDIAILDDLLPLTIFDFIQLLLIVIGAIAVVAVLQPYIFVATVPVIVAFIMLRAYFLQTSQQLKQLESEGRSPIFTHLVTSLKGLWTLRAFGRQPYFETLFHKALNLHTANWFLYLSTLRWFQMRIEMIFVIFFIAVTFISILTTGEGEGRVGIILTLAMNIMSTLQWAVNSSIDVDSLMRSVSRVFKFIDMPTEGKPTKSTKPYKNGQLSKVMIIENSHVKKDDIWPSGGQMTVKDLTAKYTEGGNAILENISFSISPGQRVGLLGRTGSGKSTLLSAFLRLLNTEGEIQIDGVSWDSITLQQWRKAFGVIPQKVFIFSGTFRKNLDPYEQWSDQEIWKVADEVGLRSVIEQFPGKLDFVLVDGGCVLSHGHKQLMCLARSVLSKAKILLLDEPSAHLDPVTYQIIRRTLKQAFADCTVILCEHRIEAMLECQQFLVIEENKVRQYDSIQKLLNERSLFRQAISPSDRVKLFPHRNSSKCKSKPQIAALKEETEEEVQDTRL

For `CCOc1ccc(NC(=O)c2cc3nccc(-c4ccc(OC)c(OC)c4)n3n2)cc1` [Cact-3, 7-(3,4-dimethoxyphenyl)-N-(4-ethoxyphenyl)pyrazolo [1,5-α]pyrimidine-2-carboxamide], the EC50 was 255 nM.
